Values quoted from earlier work, collected in paper PMC3462432 (FEBS letters, 2012).

Substance: cypemycin
- in vitro activity against mouse leukemia cells (mouse leukemia cells): potent in vitro activity

Substance: plantazolicin A
- activity against B. anthracis (B. anthracis): potent activity

Substance: plantazolicin B
- activity against B. anthracis (B. anthracis): devoid of activity
